Experimental data taken from patent US9420793B2, “Antiparasitic compounds” (Avista Pharma Solutions, priority 2015, dated 2016).
“And” between values parts separate entries of the source, which are not always exact repeats. Equal values may be shown once. Read-outs that look alike come from different tables or passages of the source.

How the values were obtained:
[1] = tested on: Dirofilaria immitis microfilariae; test: Dirofilaria immitis microfilariae motility assay; details: 72 h, read-out: concentration at which active, microfilariae motility
Aedes aegypti = test: In vitro evaluation of ingestion activity against mosquitoes; details: at 20 hours, compound in bovine blood, read-out: concentration at which active, mosquito ingestion
Procedure: In Vitro Evaluation of Ingestion Activity Against Mosquitoes (Aedes aegypti)
A solution of test compounds is added to bovine blood contained in a feeding chamber to reach the desired final concentration. Blood spiked with DMSO is prepared to serve as control. Adult female mosquitoes are introduced at the bottom of the chamber and allowed to feed on blood mixtures containing DMSO or test compounds for 30 minutes. Fully engorged mosquitoes are sorted into clean chambers after the blood meal and monitored for survival over 3 days. Replicates containing 10 mosquitoes are performed with each test compound concentration and results calculated as % mortality at specific time points.

Ctenocephalides felis [2] = test: Ctenocephalides felis residual contact assay; details: 48 h; fleas
Procedure: Ctenocephalides felis Residual Contact Assay
A solution of the test compounds, individually and in combination was dispensed onto a substrate placed into a glass vial. The treated surface was allowed to dry before infesting each vial with 10 adult Ctenocephalides felis. The treated vials were held in a controlled environment and assessment was performed at 6, 24 and 48 hours after application in comparison with untreated controls glass vials and solvent-treated glass vials. Compounds were tested in duplicate and two separate trials (n=4).

R. sanguineus = test: In vitro tick contact assay, comparison with standards
Procedure: (§1) A solution of the test compounds was used to coat the inner wall of glass vials and to treat two filter papers. Once dried, one filter paper was placed in the cap of the vial and the other in the bottom of the vial. Each treated vial was infested with 10 ticks. Contact of the ticks with residues was induced by holding the vials in a controlled environment and assessment was performed at 12, 24 and 48 hours after application in comparison with untreated glass vials and solvent-treated glass vials. Compounds were tested in duplicate and two separate trials (n=4).

D. variabilis = test: as above
Procedure: as §1

A. americanum = test: as above
Procedure: as §1

I. scapularis = test: as above
Procedure: as §1

Ctenocephalides felis [3] = details: fleas
Procedure: In Vitro Evaluation of Ingestion Activity Against Fleas (Ctenocephalides Felis)
For flea ingestion tests, an aliquot of each compound stock was added to organic bovine blood contained in an artificial feeding container, with a final DMSO concentration of 0.5%. Ten newly emerged unfed fleas, Ctenocephalides felis, from a laboratory colony, 0-7 days old, were aspirated into a chamber and exposed to the appropriate feeding container and held in a controlled environment at 35° C. Fleas were evaluated for % mortality at 24, 48, and 72 hours post infestation. Fleas showing normal movement and/or jumping ability were considered viable and those showing no movement after tapping the vials were scored as dead. The compound+blood mixture was replaced every 24 hours.

Structure (SMILES) | minimal effective concentration [1] | minimal effective concentration (Aedes aegypti) | also measured
CCCCCC(=O)N1CC2(C1)OCc1cc(C3=NSC(c4cc(Cl)c(F)c(Cl)c4)(C(F)(F)F)C3)ccc12 (stereo not drawn) [Compound 36, 1-[6-[5-(3,5-dichloro-4-fluoro-phenyl)-5-(trifluoromethyl)-4H-isothiazol-3-yl]spiro[1H-isobenzofuran-3,3′-azetidine]-1′-yl]hexan-1-one] | < 10 µM |  | 
Fc1c(Cl)cc(C2(C(F)(F)F)CC(c3ccc4c(c3)COC43CN(c4ncccn4)C3)=NS2)cc1Cl (stereo not drawn) [Compound 40, 6-[5-(3,5-dichloro-4-fluoro-phenyl)-5-(trifluoromethyl)-4H-isothiazol-3-yl]-1′-pyrimidin-2-yl-spiro[1H-isobenzofuran-3,3′-azetidine]] | < 10 µM |  | 
COCC(=O)N1CC2(C1)OCc1cc(C3=NSC(c4cc(Cl)c(F)c(Cl)c4)(C(F)(F)F)C3)ccc12 (stereo not drawn) [Compound 22, 1-[6-[5-(3,5-dichloro-4-fluoro-phenyl)-5-(trifluoromethyl)-4H-isothiazol-3-yl]spiro[1H-isobenzofuran-3,3′-azetidine]-1′-yl]-2-methoxy-ethanone] | < 10 µM |  | 
O=C(C1CCOCC1)N1CC2(C1)OCc1cc(C3=NSC(c4cc(Cl)c(F)c(Cl)c4)(C(F)(F)F)C3)ccc12 (stereo not drawn) [Compound 19, [6-[5-(3,5-dichloro-4-fluoro-phenyl)-5-(trifluoromethyl)-4H-isothiazol-3-yl]spiro[1H-isobenzofuran-3,3′-azetidine]-1′-yl]-tetrahydropyran-4-yl-methanone] | < 10 µM | < 1 µg/mL | 
O=C(CNC(=O)c1ccc(C2=NOC(c3cc(Cl)cc(C(F)(F)F)c3)(C(F)(F)F)C2)c2ccccc12)NCC(F)(F)F (stereo not drawn) [Afoxolaner] |  |  | Contact EC50 (Ctenocephalides felis [2]): >50 ppm; R. sanguineus Contact EC50 (R. sanguineus; 24 h): >50 ppm; R. sanguineus Contact EC50 (R. sanguineus; 48 h): 20.2 ± 5.0 ppm; D. variabilis Contact EC50 (D. variabilis; 24 h): >50 ppm; D. variabilis Contact EC50 (D. variabilis; 48 h): 12.35 ± 0.5 ppm; A. americanum Contact EC50 (A. americanum; 24 h): 31.6 ppm and > 50 ppm; A. americanum Contact EC50 (A. americanum; 48 h): 11.3 ± 2.3 ppm; I. scapularis Contact EC50 (I. scapularis; 24 h): 17.8 ± 5.9 ppm; I. scapularis Contact EC50 (I. scapularis; 48 h): 5.31 ± 1.8 ppm; Ingestion EC50 (Ctenocephalides felis [3]; 2 h): 6.0 ± 2.9 ppm; Ingestion EC50 (Ctenocephalides felis [3]; 24 h): 0.13 ± 0.05 ppm
CCCCN1CC2(C1)OCc1cc(C3=NSC(c4cc(Cl)c(F)c(Cl)c4)(C(F)(F)F)C3)ccc12 (stereo not drawn) [Compound 20, 1′-butyl-6-[5-(3,5-dichloro-4-fluoro-phenyl)-5-(trifluoromethyl)-4H-isothiazol-3-yl]spiro[1H-isobenzofuran-3,3′-azetidine]] | < 10 µM | < 1 µg/mL | 
CC(C)OCC(=O)N1CC2(C1)OCc1cc(C3=NSC(c4cc(Cl)c(F)c(Cl)c4)(C(F)(F)F)C3)ccc12 (stereo not drawn) [Compound 23, 1-[6-[5-(3,5-dichloro-4-fluoro-phenyl)-5-(trifluoromethyl)-4H-isothiazol-3-yl]spiro[1H-isobenzofuran-3,3′-azetidine]-1′-yl]-2-isopropoxy-ethanone] | < 10 µM |  | 
CNC(=O)N1CC2(C1)OCc1cc(C3=NSC(c4cc(Cl)c(F)c(Cl)c4)(C(F)(F)F)C3)ccc12 (stereo not drawn) [Compound 41, 6-[5-(3,5-dichloro-4-fluoro-phenyl)-5-(trifluoromethyl)-4H-isothiazol-3-yl]-N-methyl-spiro[1H-isobenzofuran-3,3′-azetidine]-1′-carboxamide] | < 10 µM | < 1 µg/mL | 
CS(=O)(=O)CC(=O)N1CC2(C1)OCc1cc(C3=NO[C@@](c4cc(Cl)c(F)c(Cl)c4)(C(F)(F)F)C3)ccc12 (racemic) [(+/−) Sarolaner, Sarolaner] |  |  | R. sanguineus Contact EC50 (R. sanguineus; 24 h): 37.8 ± 12.2 ppm; R. sanguineus Contact EC50 (R. sanguineus; 48 h): 12.7 ± 0.1 ppm; Ingestion EC50 (Ctenocephalides felis [3]; 24 h): 1.23 ± 0.11 ppm
CC(F)(F)C(=O)N1CC2(C1)OCc1cc(C3=NSC(c4cc(Cl)c(F)c(Cl)c4)(C(F)(F)F)C3)ccc12 (stereo not drawn) [Compound 31, 1-[6-[5-(3,5-dichloro-4-fluoro-phenyl)-5-(trifluoromethyl)-4H-isothiazol-3-yl]spiro[1H-isobenzofuran-3,3′-azetidine]-1′-yl]-2,2-difluoro-propan-1-one] | < 10 µM |  | 
O=C(CCC(F)(F)F)N1CC2(C1)OCc1cc(C3=NSC(c4cc(Cl)c(F)c(Cl)c4)(C(F)(F)F)C3)ccc12 (stereo not drawn) [Compound 10, 1-[6-[5-(3,5-dichloro-4-fluoro-phenyl)-5-(trifluoromethyl)-4H-isothiazol-3-yl]spiro[1H-isobenzofuran-3,3′-azetidine]-1′-yl]-4,4,4-trifluoro-butan-1-one] |  | < 1 µg/mL | 
CC(C)C(=O)N1CC2(C1)OCc1cc(C3=NSC(c4cc(Cl)c(F)c(Cl)c4)(C(F)(F)F)C3)ccc12 (stereo not drawn) [Compound 25, 1-[6-[5-(3,5-dichloro-4-fluoro-phenyl)-5-(trifluoromethyl)-4H-isothiazol-3-yl]spiro[1H-isobenzofuran-3,3′-azetidine]-1′-yl]-2-methyl-propan-1-one] | < 10 µM |  | 
O=C(Nc1ccccc1)N1CC2(C1)OCc1cc(C3=NSC(c4cc(Cl)c(F)c(Cl)c4)(C(F)(F)F)C3)ccc12 (stereo not drawn) [Compound 17, 6-[5-(3,5-dichloro-4-fluoro-phenyl)-5-(trifluoromethyl)-4H-isothiazol-3-yl]-N-phenyl-spiro[1H-isobenzofuran-3,3′-azetidine]-1′-carboxamide] | < 10 µM | < 1 µg/mL | 
O=C(N1CC2(C1)OCc1cc(C3=NSC(c4cc(Cl)c(F)c(Cl)c4)(C(F)(F)F)C3)ccc12)C(F)(F)C(F)(F)F (stereo not drawn) [Compound 30, 1-[6-[5-(3,5-dichloro-4-fluoro-phenyl)-5-(trifluoromethyl)-4H-isothiazol-3-yl]spiro[1H-isobenzofuran-3,3′-azetidine]-1′-yl]-2,2,3,3,3-pentafluoro-propan-1-one] | < 10 µM | < 1 µg/mL | 
CCCCC(=O)N1CC2(C1)OCc1cc(C3=NSC(c4cc(Cl)c(F)c(Cl)c4)(C(F)(F)F)C3)ccc12 (stereo not drawn) [Compound 35, 1-[6-[5-(3,5-dichloro-4-fluoro-phenyl)-5-(trifluoromethyl)-4H-isothiazol-3-yl]spiro[1H-isobenzofuran-3,3′-azetidine]-1′-yl]pentan-1-one] | < 10 µM | < 1 µg/mL | 
CCOCC(=O)N1CC2(C1)OCc1cc(C3=NSC(c4cc(Cl)c(F)c(Cl)c4)(C(F)(F)F)C3)ccc12 (stereo not drawn) [Compound 24, 1-[6-[5-(3,5-dichloro-4-fluoro-phenyl)-5-(trifluoromethyl)-4H-isothiazol-3-yl]spiro[1H-isobenzofuran-3,3′-azetidine]-1′-yl]-2-ethoxy-ethanone] | < 10 µM |  | 
CC(=O)N1CC2(C1)OCc1cc(C3=NSC(c4cc(Cl)c(F)c(Cl)c4)(C(F)(F)F)C3)ccc12 (stereo not drawn) [Compound 27, 1-[6-[5-(3,5-dichloro-4-fluoro-phenyl)-5-(trifluoromethyl)-4H-isothiazol-3-yl]spiro[1H-isobenzofuran-3,3′-azetidine]-1′-yl]ethanone] | < 10 µM |  | 
CCNC(=O)N1CC2(C1)OCc1cc(C3=NSC(c4cc(Cl)c(F)c(Cl)c4)(C(F)(F)F)C3)ccc12 (stereo not drawn) [Compound 16, 6-[5-(3,5-dichloro-4-fluoro-phenyl)-5-(trifluoromethyl)-4H-isothiazol-3-yl]-N-ethyl-spiro[1H-isobenzofuran-3,3′-azetidine]-1′-carboxamide] | < 10 µM | < 1 µg/mL | 
O=C(c1ccc(N2CCOCC2)cc1)N1CC2(C1)OCc1cc(C3=NSC(c4cc(Cl)c(F)c(Cl)c4)(C(F)(F)F)C3)ccc12 (stereo not drawn) [Compound 13, [6-[5-(3,5-dichloro-4-fluoro-phenyl)-5-(trifluoromethyl)-4H-isothiazol-3-yl]spiro[1H-isobenzofuran-3,3′-azetidine]-1′-yl]-(4-morpholinophenyl)methanone] | < 10 µM |  | 
CCC(=O)N1CC2(C1)OCc1cc(C3=NSC(c4cc(Cl)c(F)c(Cl)c4)(C(F)(F)F)C3)ccc12 (stereo not drawn) [Compound 26, 1-[6-[5-(3,5-dichloro-4-fluoro-phenyl)-5-(trifluoromethyl)-4H-isothiazol-3-yl]spiro[1H-isobenzofuran-3,3′-azetidine]-1′-yl]propan-1-one] | < 10 µM |  | 
CC(C)(C)CCN1CC2(C1)OCc1cc(C3=NSC(c4cc(Cl)c(F)c(Cl)c4)(C(F)(F)F)C3)ccc12 (stereo not drawn) [Compound 21, 6-[5-(3,5-dichloro-4-fluoro-phenyl)-5-(trifluoromethyl)-4H-isothiazol-3-yl]-1′-(3,3-dimethylbutyl)spiro[1H-isobenzofuran-3,3′-azetidine]] | < 10 µM |  | 
N#CCC(=O)N1CC2(C1)OCc1cc(C3=NSC(c4cc(Cl)c(F)c(Cl)c4)(C(F)(F)F)C3)ccc12 (stereo not drawn) [Compound 29, 3-[6-[5-(3,5-dichloro-4-fluoro-phenyl)-5-(trifluoromethyl)-4H-isothiazol-3-yl]spiro[1H-isobenzofuran-3,3′-azetidine]-1′-yl]-3-oxo-propanenitrile] | < 10 µM | < 1 µg/mL | 
